# Reference: the supplement of paper PMC10307832
# Assays:
# Assay in all cases: relative viability (nuclei count vs DMSO), 5 days (fraction); higher = more cells survive
# [1] = system: LOU-NH91
# In short: (§1)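 A single step with final 0.05% Triton X-100, 1% formaldehyde and 1 ug/ml Hoechst fixed the cells and stained nuclei 5 days after treatment. Lung cancer cell lines in 1536-well plates had been treated by pin tool the day after seeding with one drug alone or a fixed anchor-drug dose plus five library-drug doses (not always all listed) in √10 steps, and nuclei were counted on 4× images. Relative viability is the ratio of nuclei in treated wells to nuclei in vehicle wells, taken as the median of duplicate plates.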
# [2] = system: NCI-H647
# In short: as §1
# [3] = system: A-427
# In short: as §1
# [4] = system: NCI-H1793
# In short: as §1
# [5] = system: NCI-H1651
# In short: as §1
# [6] = system: LXF-289
# In short: as §1
# [7] = system: 201T
# In short: as §1
# [8] = system: COR-L23
# In short: as §1
# [9] = system: NCI-H520
# In short: as §1
# [10] = system: NCI-H23
# In short: as §1
# [11] = system: HARA
# In short: as §1
# [12] = system: NCI-H522
# In short: as §1
# [13] = system: NCI-H1650
# In short: as §1
# [14] = system: HCC-78
# In short: as §1
# [15] = system: NCI-H838
# In short: as §1
# [16] = system: NCI-H2405
# In short: as §1
# [17] = system: RERF-LC-KJ
# In short: as §1
# [18] = system: UMC-11
# In short: as §1
# [19] = system: LK-2
# In short: as §1
# [20] = system: PC-3 [JPC-3]
# In short: as §1
# [21] = system: LCLC-97TM1
# In short: as §1
# [22] = system: LCLC-103H
# In short: as §1
# [23] = system: NCI-H2347
# In short: as §1
smiles,measurement,setting,value
Cc1csc(=NC2CCCCC2)n1/N=C/c1ccc(O)c(O)c1O [MIM1] + Cc1cc(Nc2cc(N3CCN(C)CC3)nc(Sc3ccc(NC(=O)C4CC4)cc3)n2)n[nH]1 [Tozasertib] (partner 0.1 µM),relative viability,[1]; first compound 0.2 µM,0.65
same,relative viability,[1]; first compound 0.6325 µM,0.657
same,relative viability,[1]; first compound 2 µM,0.51
same,relative viability,[1]; first compound 6.325 µM,0.581
same,relative viability,[1]; first compound 20 µM,0.225
same,relative viability,[2]; first compound 0.2 µM,0.262
same,relative viability,[2]; first compound 0.6325 µM,0.27
same,relative viability,[2]; first compound 6.325 µM,0.247
same,relative viability,[2]; first compound 20 µM,0.11
same,relative viability,[3]; first compound 0.2 µM,0.266
same,relative viability,[3]; first compound 2 µM,0.202
same,relative viability,[3]; first compound 6.325 µM,0.249
same,relative viability,[3]; first compound 20 µM,0.164
same,relative viability,[4]; first compound 0.2 µM,0.405
same,relative viability,[4]; first compound 2 µM,0.435
same,relative viability,[4]; first compound 6.325 µM,0.298
same,relative viability,[4]; first compound 20 µM,0.34
same,relative viability,[5]; first compound 0.2 µM,0.601
same,relative viability,[5]; first compound 0.6325 µM,0.689
same,relative viability,[5]; first compound 2 µM,0.565
same,relative viability,[5]; first compound 6.325 µM,0.607
same,relative viability,[5]; first compound 20 µM,0.503
same,relative viability,[6]; first compound 0.2 µM,0.167
same,relative viability,[6]; first compound 0.6325 µM,0.217
same,relative viability,[6]; first compound 2 µM,0.198
same,relative viability,[6]; first compound 6.325 µM,0.181
same,relative viability,[6]; first compound 20 µM,0.117
same,relative viability,[7]; first compound 0.2 µM,0.956
same,relative viability,[7]; first compound 0.6325 µM,1
same,relative viability,[7]; first compound 2 µM,0.896
same,relative viability,[7]; first compound 6.325 µM,0.504
same,relative viability,[7]; first compound 20 µM,0.377
same,relative viability,[8]; first compound 0.2 µM,0.184
same,relative viability,[8]; first compound 0.6325 µM,0.218
same,relative viability,[8]; first compound 2 µM,0.182
same,relative viability,[8]; first compound 6.325 µM,0.146
same,relative viability,[8]; first compound 20 µM,0.152
same,relative viability,[9]; first compound 0.2 µM,0.55
same,relative viability,[9]; first compound 0.6325 µM,0.419
same,relative viability,[9]; first compound 2 µM,0.463
same,relative viability,[9]; first compound 6.325 µM,0.428
same,relative viability,[9]; first compound 20 µM,0.375
same,relative viability,[10]; first compound 0.2 µM,0.398
same,relative viability,[10]; first compound 2 µM,0.325
same,relative viability,[10]; first compound 6.325 µM,0.175
same,relative viability,[10]; first compound 20 µM,0.15
same,relative viability,[11]; first compound 0.2 µM,0.101
same,relative viability,[11]; first compound 2 µM,0.0957
same,relative viability,[11]; first compound 6.325 µM,0.112
same,relative viability,[11]; first compound 20 µM,0.0634
same,relative viability,[12]; first compound 0.2 µM,0.622
same,relative viability,[12]; first compound 0.6325 µM,0.572
same,relative viability,[12]; first compound 2 µM,0.484
same,relative viability,[12]; first compound 6.325 µM,0.608
same,relative viability,[12]; first compound 20 µM,0.452
same,relative viability,[13]; first compound 0.2 µM,0.529
same,relative viability,[13]; first compound 0.6325 µM,0.411
same,relative viability,[13]; first compound 2 µM,0.282
same,relative viability,[13]; first compound 6.325 µM,0.322
same,relative viability,[13]; first compound 20 µM,0.133
same,relative viability,[14]; first compound 0.2 µM,0.461
same,relative viability,[14]; first compound 0.6325 µM,0.288
same,relative viability,[14]; first compound 2 µM,0.454
same,relative viability,[14]; first compound 6.325 µM,0.39
same,relative viability,[14]; first compound 20 µM,0.337
same,relative viability,[15]; first compound 0.2 µM,0.292
same,relative viability,[15]; first compound 0.6325 µM,0.307
same,relative viability,[15]; first compound 2 µM,0.249
same,relative viability,[15]; first compound 6.325 µM,0.236
same,relative viability,[15]; first compound 20 µM,0.236
same,relative viability,[16]; first compound 0.2 µM,0.767
same,relative viability,[16]; first compound 0.6325 µM,0.721
same,relative viability,[16]; first compound 2 µM,0.682
same,relative viability,[16]; first compound 6.325 µM,0.549
same,relative viability,[16]; first compound 20 µM,0.537
same,relative viability,[17]; first compound 0.2 µM,0.507
same,relative viability,[17]; first compound 0.6325 µM,0.503
same,relative viability,[17]; first compound 2 µM,0.317
same,relative viability,[17]; first compound 6.325 µM,0.231
same,relative viability,[17]; first compound 20 µM,0.224
same,relative viability,[18]; first compound 0.2 µM,0.197
same,relative viability,[18]; first compound 2 µM,0.196
same,relative viability,[18]; first compound 6.325 µM,0.207
same,relative viability,[18]; first compound 20 µM,0.187
same,relative viability,[19]; first compound 0.2 µM,0.186
same,relative viability,[19]; first compound 2 µM,0.161
same,relative viability,[19]; first compound 6.325 µM,0.166
same,relative viability,[19]; first compound 20 µM,0.142
same,relative viability,[20]; first compound 0.2 µM,0.912
same,relative viability,[20]; first compound 0.6325 µM,0.86
same,relative viability,[20]; first compound 2 µM,0.849
same,relative viability,[20]; first compound 6.325 µM,0.694
same,relative viability,[20]; first compound 20 µM,0.574
same,relative viability,[21]; first compound 0.2 µM,0.285
same,relative viability,[21]; first compound 0.6325 µM,0.237
same,relative viability,[21]; first compound 2 µM,0.292
same,relative viability,[21]; first compound 6.325 µM,0.192
same,relative viability,[21]; first compound 20 µM,0.109
same,relative viability,[22]; first compound 0.2 µM,0.609
same,relative viability,[22]; first compound 0.6325 µM,0.426
same,relative viability,[22]; first compound 2 µM,0.505
same,relative viability,[22]; first compound 6.325 µM,0.41
same,relative viability,[22]; first compound 20 µM,0.268
same,relative viability,[23]; first compound 0.2 µM,0.478
same,relative viability,[23]; first compound 0.6325 µM,0.51
same,relative viability,[23]; first compound 2 µM,0.497
same,relative viability,[23]; first compound 6.325 µM,0.473
same,relative viability,[23]; first compound 20 µM,0.369
